What all share (assay type): functional, cell-based
The test system of test [1] is EA.hy 926. The test can be described thus: Inhibition of tube formation in human EAhy926 cells at 25 uM after 24 hrs by phase-contrast microscopy.
The subject of test [2] is EA.hy 926. Nature of the test: Inhibition of tube formation in human EAhy926 cells at 10 uM pre-incubated for 12 hrs measured after 24 hrs by phase-contrast microscopy.
Test [3] deals with EA.hy 926. Nature of the test: Inhibition of tube formation in human EAhy926 cells at 50 uM after 24 hrs by phase-contrast microscopy.
Test [4] concerns EA.hy 926. The test can be described thus: Inhibition of tube formation in human EAhy926 cells at 20 uM after 24 hrs by phase-contrast microscopy.
The test system of test [5] is EA.hy 926. Nature of the test: Inhibition of tube formation in human EAhy926 cells at 40 uM after 24 hrs by phase-contrast microscopy.
Test [6] concerns EA.hy 926. The test can be described thus: Inhibition of tube formation in human EAhy926 cells after 24 hrs by phase-contrast microscopy.

Calls of active or inactive are those of the source. No cut-off for these calls is given here.

Take `CCCCC/C=C/C=C/C(O)CCCCCCCC(=O)O` (stereo not given): the outcome with EA.hy 926 [1] was Active. Regarding `Cc1cccc(Nc2cc(Cl)nc(SCC(=O)O)n2)c1C`, in the test on EA.hy 926 [2], the outcome was Active.

In the case of `CC/C=C\C/C=C\C/C=C\C/C=C\C/C=C\C/C=C\CCC(=O)O`, the outcome in the test with EA.hy 926 [3] was inactive.

Regarding `CCCCC/C=C\C[C@@H](O)/C=C/C=C/C=C\[C@@H](O)CCCC(=O)O`, the outcome in the test with EA.hy 926 [2] was Active. Regarding `CC1(COc2ccc(CC3SC(=O)NC3=O)cc2)CCCCC1` (stereo not given), the result with EA.hy 926 [2] was Active. For `CC/C=C\C/C=C\C/C=C\C/C=C\C/C=C\CCCC(=O)O`, the result with EA.hy 926 [3] was inactive. For the compound `CCCCC/C=C\C=C\C(O)C/C=C\C/C=C\CCCC(=O)O` (stereo not given), the result in the test on EA.hy 926 [4] and in the test on EA.hy 926 [5] was Active. In the case of `CCCCC/C=C\C=C\C(O)C/C=C\C/C=C\C/C=C\CCCCC(=O)O` (stereo not given), the Activity entry with EA.hy 926 [6] is “Dose-dependent effect”. Besides, the outcome in the test on EA.hy 926 [2] was Active.

For the origin of these results see ChEMBL document CHEMBL1154510, “A new antiangiogenic C24 oxylipin from the soft coral Sinularia numerosa” (Bioorg Med Chem, 2009).
